Earlier results as cited in US20230000835A1, “LYSINE-SPECIFIC HISTONE DEMETHYLASE INHIBITORS FOR THE TREATMENT OF MYELOPROLIFERATIVE NEOPLASMS” (Imago Biosciences, Inc., priority 2019, published 2023).

System: primary myelofibrosis patients
Details: 50 to 100 mg/day in combination with prednisone; cited from earlier work

O=C1CCC(N2C(=O)c3ccccc3C2=O)C(=O)N1 (centres unmarked) [Thalidomide]
primary myelofibrosis patients with improved anemia and thrombocytopenia: approximately 60% | primary myelofibrosis patients with reduced spleen size: approximately 20%
